Values quoted from earlier work, collected in patent publication US20160213008A1, “ULTRASONIC MICRO-DROPLET RELEASE OF MATRIX BOUND FOOD DERIVED ANTIMICROBIALS” (priority 2015, published 2016).

Conditions: Cavallito and colleagues 1944

| SMILES | antibacterial and antifungal / antimicrobial activity |
| --- | --- |
| C=CCSSC=CC[S+]([O-])CC=C (mixture of isomers) [Ajoene] | shows antimicrobial properties |
| C=CCS[S+]([O-])CC=C (centres unmarked) [allicin] | attributable |
